Several values for one entry are separate records, joined by “and”; a condition that tells them apart may be missing. Identical values can stand only once.
Details: Liquid, Vibrating wire viscometry

CCCCOC(=O)CCCCC(=O)OCCCC [dibutyl hexanedioate]
Details | viscosity
343.15 K, 20270 kPa | 2.331 mPa·s
343.15 K, 20280 kPa | 2.335 mPa·s
343.15 K, 30090 kPa | 2.562 mPa·s
343.15 K, 30130 kPa | 2.561 mPa·s
343.15 K, 30140 kPa | 2.566 mPa·s
343.15 K, 30150 kPa | 2.561 mPa·s and 2.564 mPa·s
343.15 K, 30160 kPa | 2.566 mPa·s
343.15 K, 39830 kPa | 2.806 mPa·s
343.15 K, 50080 kPa | 3.08 mPa·s and 3.083 mPa·s
343.15 K, 65610 kPa | 3.482 mPa·s
343.15 K, 65620 kPa | 3.49 mPa·s
358.15 K, 2510 kPa | 1.559 mPa·s
358.15 K, 2520 kPa | 1.559 mPa·s and 1.56 mPa·s
358.15 K, 5050 kPa | 1.594 mPa·s and 1.593 mPa·s
358.15 K, 5060 kPa | 1.594 mPa·s and 1.595 mPa·s
358.15 K, 5240 kPa | 1.601 mPa·s
358.15 K, 9930 kPa | 1.688 mPa·s
358.15 K, 10010 kPa | 1.69 mPa·s
358.15 K, 15060 kPa | 1.769 mPa·s and 1.766 mPa·s and 1.764 mPa·s
358.15 K, 15100 kPa | 1.768 mPa·s
358.15 K, 15130 kPa | 1.765 mPa·s
358.15 K, 20130 kPa | 1.863 mPa·s
358.15 K, 30280 kPa | 2.045 mPa·s
358.15 K, 30290 kPa | 2.042 mPa·s and 2.044 mPa·s
358.15 K, 30300 kPa | 2.041 mPa·s
358.15 K, 30310 kPa | 2.043 mPa·s
358.15 K, 30320 kPa | 2.046 mPa·s
358.15 K, 39960 kPa | 2.223 mPa·s
358.15 K, 39990 kPa | 2.219 mPa·s
358.15 K, 40010 kPa | 2.219 mPa·s
358.15 K, 40040 kPa | 2.222 mPa·s
358.15 K, 40060 kPa | 2.219 mPa·s
358.16 K, 1080 kPa | 1.521 mPa·s
358.16 K, 1090 kPa | 1.524 mPa·s and 1.523 mPa·s and 1.521 mPa·s
358.16 K, 2510 kPa | 1.559 mPa·s
358.16 K, 2540 kPa | 1.558 mPa·s
358.16 K, 5180 kPa | 1.6 mPa·s
358.16 K, 5200 kPa | 1.597 mPa·s
358.16 K, 5240 kPa | 1.599 mPa·s
358.16 K, 7560 kPa | 1.645 mPa·s and 1.644 mPa·s and 1.643 mPa·s
358.16 K, 20120 kPa | 1.868 mPa·s and 1.866 mPa·s
358.16 K, 20130 kPa | 1.868 mPa·s
358.16 K, 20160 kPa | 1.863 mPa·s
358.16 K, 40080 kPa | 2.223 mPa·s
358.16 K, 50160 kPa | 2.426 mPa·s and 2.429 mPa·s
358.16 K, 50170 kPa | 2.424 mPa·s and 2.427 mPa·s
358.16 K, 65550 kPa | 2.761 mPa·s and 2.757 mPa·s and 2.758 mPa·s
373.14 K, 2490 kPa | 1.265 mPa·s
373.14 K, 10000 kPa | 1.376 mPa·s and 1.374 mPa·s
373.14 K, 15040 kPa | 1.442 mPa·s
373.14 K, 15050 kPa | 1.443 mPa·s
373.14 K, 29940 kPa | 1.668 mPa·s
373.15 K, 1060 kPa | 1.253 mPa·s
373.15 K, 1120 kPa | 1.255 mPa·s
373.15 K, 1160 kPa | 1.254 mPa·s
373.15 K, 2590 kPa | 1.264 mPa·s
373.15 K, 2600 kPa | 1.264 mPa·s
373.15 K, 5080 kPa | 1.302 mPa·s and 1.301 mPa·s and 1.303 mPa·s
373.15 K, 7600 kPa | 1.342 mPa·s and 1.341 mPa·s
373.15 K, 7610 kPa | 1.341 mPa·s
373.15 K, 10090 kPa | 1.375 mPa·s
373.15 K, 10130 kPa | 1.374 mPa·s
373.15 K, 15060 kPa | 1.441 mPa·s
373.15 K, 15070 kPa | 1.443 mPa·s
373.15 K, 20220 kPa | 1.518 mPa·s
373.15 K, 20230 kPa | 1.518 mPa·s
373.15 K, 20250 kPa | 1.516 mPa·s
373.15 K, 29920 kPa | 1.669 mPa·s
373.15 K, 29980 kPa | 1.667 mPa·s
373.15 K, 30000 kPa | 1.667 mPa·s
373.15 K, 50030 kPa | 1.976 mPa·s [middle of 4 runs]
373.15 K, 65350 kPa | 2.231 mPa·s and 2.229 mPa·s

Reference: the NIST ThermoML archive (doi:10.1016/j.fluid.2015.03.016)
